# Key:
# Type in all cases: cell-based
# HTN-BRD4 = target: T1, HTN-BRD4 (Homo sapiens, UniProt O60885+P62942, F37V); assay: IP-WB of HTN-BRD4 O-GlcNAcylation with truncated 0tfOGT; details: 0tfOGT:HTN-BRD4 system, 4 h
# T1 construct: HaloTag fragment; expressed in transfected cells; host or cells: HEK293T
# Method: FIGS. 7A-7E: Specificity and reversibility of OGTAC strategy. […] (B), Constructs of fOGT with 13.5 (rounded to 13) TPR and 0TPR-fOGT (0tfOGT). (C). […] (D), Dose-dependent O-GlcNAcylation profile of HTN-BRD4 by OGTAC-4 treatment. HEK293T cells expressing HTN-BRD4:0tfOGT=1:0.05 were treated with an increasing concentration of OGTAC-4 for 4 h. Then, the O-GlcNAcylation level of HTN-BRD4 was assessed by immunoblot after IP using BRD4 antibody. All quantifications are shown as mean±s.e.m. of n=3 biologically independent experiments. (E), Reversible effect of OGTAC-4 on HTN-BRD4 can be achieved by addition of AP1867. HEK293T cells expressing HTN-BRD4:0tfOGT=1:0.05 were pretreated with OGTAC-4 (500 nM) or DMSO for 4 h, and culturing media were replaced by fresh media with DMSO or AP1867 (50 μM) for the indicated time. The quantifications in right panel were conducted by the normalizing the fold-change (OGTAC-4/DMSO) for each post-washout time point to the value of 4 h pre-treatment. All quantifications are shown as mean±s.e.m. of 3 independent biological repeats. Statistical significance was calculated with ordinary one-way ANOVA comparing samples with different transfection conditions or OGTAC-treatment. ns, p≥0.05; *p<0.05; **p<0.01; ***p<0.001; ****p<0.0001.
# We next applied OGTAC-4 to the 0tfOGT:HTN-BRD4 system, resulting in an 5-fold increase in O-GlcNAc level on BRD4. […]
# endogenous BRD4 = target: T2, endogenous BRD4 (Homo sapiens, UniProt O60885); assay: IP-WB of endogenous BRD4 in cell line stably expressing fOGT
# T2 construct: endogenous BRD4 in cell line stably expressing fOGT; endogenous in cells
# Source text: We next pursued the induction of POI O-GlcNAcylation independent of Halotag; this could facilitate the induction of O-GlcNAcylation on endogenous POIs for their functional dissection. […] As OGTAC-4 directly recruit BRD4, we first try to assess its potency on endogenous BRD4 in cell line stably expressing fOGT. […] Then, we overexpressed BRD4 together with fOGT in HEK293T cells to accommodate the readout to fit in IP-WB detection limit. As expected, in the co-expression system, we validated the O-GlcNAcylation inducing effect of OGTAC-4. […] Of note, OGTAC-4 promoted BRD4 O-GlcNAcylation and the formation of a stable ternary complex between BRD4 and fOGT at concentrations as low as 3 nM (FIG. 4C & FIG. 14). […] This may be due to the sub-stoichiometric catalytic activity of OGTAC-4; at lower concentration, OGTAC-4 can still be effective because after enzymatic transfer of O-GlcNAc from fOGT active site to BRD4, the BRD4 would dissociate from the original ternary complex and other unmodified BRD4 could be recruited to fOGT by OGTAC-4. However, OGTAC-1 covalently linked to HTN-BRD4, and AP1867 binds tightly to fOGT. therefore, once HTN-BRD4 dissociated, free OGTAC-1 molecules may form binary complex with fOGT and inhibit other HTN-BRD4 from formation of new ternary complex. […]
# [1] = target: T3, fOGT (FKBP12^F36V fused-OGT) (Homo sapiens, UniProt P62942, F37V); assay: Intact cell CETSA (fOGT engagement); details: HEK-293T, 4 h, HEK293T HTN-BRD4:fOGT=1:0.05
# T3 construct: expressed in transfected cells; host or cells: HEK293T
# Method: For fOGT engagement, we established a cellular thermal shift assay (CETSA). Using same co-expressing system, we treated cells with OGTAC 1-3 for 4 h, and conducted heat challenge to intact cells at a series of temperature to determine the corresponding melting temperature (Tm). […] HEK293T cells (2.5×10^6 cells) were seeded in 10 cm culture dish overnight for attachment. On the next day, cells were transfected with HTN-BRD4:fOGT=1:0.05 plasmid for 24 hours until ˜90% confluence. After treatment with 5 μM compounds or DMSO, cells were collected and washed with PBS. Subsequently, cells were re-suspended in 500 μL PBS and equally divided into 50 μL aliquots. The tubes were subjected to heat challenge at 37-53° C. for 5 mins, followed by cooling on ice. Cells were lysed by three repeated freeze-thaw cycles with liquid nitrogen and water bath. Lastly, cells were centrifuged at 14000 RPM for 15 mins and supernatants were collected for Western Blot analysis.
# HTN-CK2α = HTN-CK2α (Homo sapiens, UniProt P68400); assay: Immunoblot of HTN-CK2α O-GlcNAcylation in HeLa cells; details: 125 nM, 8 h
# Method: FIG. 12: Immunoblotting analysis of effects of OGTAC-1 on HTN-CK2αin HeLa cell line. HeLa cells were transfected with fOGT:HTN-CK2α=1:0.1 for 24 h, followed by treatment of OGTAC-1 (125 nM) or other probes for 8 h. For OGTAC-1H, ‘++’ denotes 10-fold concentration of OGTAC-1, while “+” denote the same concentration of OGTAC-1. The quantification was conducted by immunoblot signal of RL2 relative to CK2α. as the mean±s.e.m. of n=3 biologically independent experiments. Statistical significance was calculated by unpaired t-tests.
# S347 is a well-defined O-GlcNAcylation site on CK2α, while S348 is the potential alternative site as it is adjacent to S347. To verify the O-GlcNAc sites induced by OGTAC-1 in HTN-CK2α. we constructed HTN-CK2α plasmids with S347A and S347A/S348A mutations. […] Collectively, these findings support the physiological relevance of O-GlcNAcylation induced by OGTAC-1.
# HTN-CK2α, sequence (P68400 with tags, fused parts or gaps): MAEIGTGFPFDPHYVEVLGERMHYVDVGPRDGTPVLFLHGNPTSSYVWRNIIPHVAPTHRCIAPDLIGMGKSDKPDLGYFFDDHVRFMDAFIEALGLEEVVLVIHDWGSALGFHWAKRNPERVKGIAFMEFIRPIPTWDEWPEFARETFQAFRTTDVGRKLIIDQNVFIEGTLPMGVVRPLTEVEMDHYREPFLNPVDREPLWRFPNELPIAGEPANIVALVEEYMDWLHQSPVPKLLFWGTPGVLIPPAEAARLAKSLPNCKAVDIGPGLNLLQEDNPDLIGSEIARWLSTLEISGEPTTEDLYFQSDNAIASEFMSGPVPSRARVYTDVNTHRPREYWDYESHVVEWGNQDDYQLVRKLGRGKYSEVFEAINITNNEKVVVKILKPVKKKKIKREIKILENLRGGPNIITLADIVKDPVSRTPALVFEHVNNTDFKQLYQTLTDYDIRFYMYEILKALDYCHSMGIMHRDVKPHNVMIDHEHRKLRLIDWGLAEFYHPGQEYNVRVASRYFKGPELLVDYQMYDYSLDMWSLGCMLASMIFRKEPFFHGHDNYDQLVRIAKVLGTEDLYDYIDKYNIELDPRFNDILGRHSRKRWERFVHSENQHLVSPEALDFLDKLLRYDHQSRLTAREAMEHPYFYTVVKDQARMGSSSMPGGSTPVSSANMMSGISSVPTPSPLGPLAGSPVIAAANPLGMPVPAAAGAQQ
# HTN-CK2α, sequence (P62942+O15294 fused P62942:F37V partner): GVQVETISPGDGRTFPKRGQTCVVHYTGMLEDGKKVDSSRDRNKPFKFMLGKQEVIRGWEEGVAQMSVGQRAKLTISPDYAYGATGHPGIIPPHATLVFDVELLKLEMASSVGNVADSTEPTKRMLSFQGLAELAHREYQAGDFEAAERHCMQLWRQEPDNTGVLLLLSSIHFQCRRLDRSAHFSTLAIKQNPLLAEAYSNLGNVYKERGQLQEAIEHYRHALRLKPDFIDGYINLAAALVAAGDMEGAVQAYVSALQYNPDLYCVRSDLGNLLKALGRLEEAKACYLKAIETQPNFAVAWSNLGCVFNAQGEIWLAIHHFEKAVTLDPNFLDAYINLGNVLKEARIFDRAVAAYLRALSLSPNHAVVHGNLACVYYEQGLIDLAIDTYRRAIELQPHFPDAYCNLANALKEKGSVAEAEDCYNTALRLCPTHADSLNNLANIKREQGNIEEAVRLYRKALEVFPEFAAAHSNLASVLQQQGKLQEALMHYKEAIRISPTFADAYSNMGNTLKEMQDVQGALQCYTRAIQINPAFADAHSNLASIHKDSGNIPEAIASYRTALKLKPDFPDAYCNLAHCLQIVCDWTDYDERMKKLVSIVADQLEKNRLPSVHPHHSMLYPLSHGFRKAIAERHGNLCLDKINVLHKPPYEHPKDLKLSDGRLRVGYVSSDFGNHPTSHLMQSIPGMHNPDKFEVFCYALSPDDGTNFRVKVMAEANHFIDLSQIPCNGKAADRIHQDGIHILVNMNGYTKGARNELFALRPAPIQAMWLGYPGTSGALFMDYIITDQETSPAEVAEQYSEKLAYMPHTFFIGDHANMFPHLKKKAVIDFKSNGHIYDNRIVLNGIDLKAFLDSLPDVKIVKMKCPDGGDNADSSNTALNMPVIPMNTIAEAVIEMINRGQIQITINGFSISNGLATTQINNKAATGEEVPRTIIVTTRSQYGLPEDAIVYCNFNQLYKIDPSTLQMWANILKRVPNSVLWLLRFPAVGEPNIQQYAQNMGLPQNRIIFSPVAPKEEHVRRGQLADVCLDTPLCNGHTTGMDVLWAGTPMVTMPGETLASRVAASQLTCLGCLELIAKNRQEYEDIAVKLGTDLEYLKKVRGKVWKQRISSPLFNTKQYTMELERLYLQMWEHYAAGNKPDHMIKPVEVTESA
# T3 sequence (P62942 whole entry F37V, the tested form may be a part): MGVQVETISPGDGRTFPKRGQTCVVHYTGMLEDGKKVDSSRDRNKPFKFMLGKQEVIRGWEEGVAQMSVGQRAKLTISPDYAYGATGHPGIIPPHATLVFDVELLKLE
# T1 sequence (P62942 whole entry F37V, stated change not applied, other chains not shown, the tested form may be a part): as the sequence (P62942 whole entry F37V, the tested form may be a part) above
SMILES,fold increase in O-GlcNAc level on BRD4 (HTN-BRD4),"O-GlcNAc signal on endogenous BRD4 (IP-WB, RL2) (endogenous BRD4)",ΔTm at 5 µM [1],effect on HTN-CK2α in HeLa cells (HTN-CK2α)
"CC[C@H](C(=O)N1CCCC[C@H]1C(=O)O[C@H](CCc1ccc(OC)c(OC)c1)c1cccc(OCC(=O)NCCCCCCNC(=O)C[C@@H]2N=C(c3ccc(Cl)cc3)c3c(sc(C)c3C)-n3c(C)nnc32)c1)c1cc(OC)c(OC)c(OC)c1 [OGTAC-4, (R)-1-(3-(2-((6-(2-((S)-4-(4-chlorophenyl)-2,3,9-trimethyl-6H-thieno[3,2-f[]8 1,2,4]triazolo[4,3-a][1,4]diazepin-6-yl)acetamido)hexyl)amino)-2-oxoethoxy)phenyl)-3-(3,4-dimethoxyphenyl)propyl (S)-1-((S)-2-(3,4,5-trimethoxyphenyl)butanoyl)piperidine-2-carboxylate]",5 fold,failed to detect any signal,–,–
"CC[C@H](C(=O)N1CCCC[C@H]1C(=O)O[C@H](CCc1ccc(OC)c(OC)c1)c1cccc(OCC(=O)NCCOCCOCCCCCCCl)c1)c1cc(OC)c(OC)c(OC)c1 [OGTAC-1, (R)-1-(3-(2-((2-(2-((6-chlorohexyl)oxy)ethoxy)ethyl)amino)-2-oxoethoxy)phenyl)-3-(3,4-dimethoxyphenyl)propyl (S)-1-((S)-2-(3,4,5-trimethoxyphenyl)butanoyl) piperidine-2-carboxylate]",–,–,1.4 °C,confirmed the effect

# — patent US20250035641A1, “COMPOSITIONS AND METHODS RELATED TO PROTEIN LABELING” (The Chinese University of Hong Kong, priority 2023, published 2025)
